Results reported in US20250032624A1, “SMALL MOLECULE DEGRADATION METHODS FOR TREATING ALS/FTD” (University of Florida Research Foundation, Incorporated, priority 2021, published 2025).

Columns and labels:
Type in all cases: cell-based, human
[1] = tested on: iPSC differentiated motor neurons (iPSNs); assay: Cell viability in iPSNs; conditions: doses up to 1 μM
Protocol: Patient-derived LCLs were seeded overnight in 96-well plates (˜10^4 cells/well) and treated with compounds for 96 hours. Cell viability was measured using the CellTiter-Fluor™ Cell Viability Assay (Promega) per the manufacturer's protocol. iPSC cell viability was measured by seeding cells in Matrigel-coated 6-well plates with Basal medium (iPSC maintenance described above). After overnight incubation, the medium was replaced with fresh medium containing compounds diluted in 0.1% DMSO. Cells were treated with compound for 96 hours. Cell viability was measured using the AlamarBlue™ Cell Viability Reagent (DAL1025, Thermo Fisher Scientific) per the manufacturer's protocol. iPSN cell viability was measured by […]

[2] = tested on: RAN translation, poly(GP); assay: poly(GP) abundance in c9ALS/FTD iPSNs; conditions: 500 nM, treated 17 days (day 15-32)
Protocol: Differentiated motor neurons (iPSNs) were derived from the iPSCs listed in the previous section. The differentiation process was based on a previously reported method with slight modifications^33,34. Briefly, iPSCs were plated into Matrigel-coated 100 mm dishes (30-40% confluence). Neuroepithelial induction was performed by replacing the Basal medium with Stage 1 medium [47.5% IMDM (Iscove's Modified Dulbecco's Medium), 47.5% F12 medium, 1% NEAA (Non-Essential Amino Acids) (Life Technologies), 2% B27 (Invitrogen), 1% N2 (Invitrogen), 1% PSA (Penicillin-Streptomycin-Amphotericin), 0.2 μM LDN193189 (Stemgent), 10 μM SB431542 (STEMCELL Technologies) and 3 μM CHIR99021 (Sigma-Aldrich)]. The medium was changed daily for 6 days, after which cells were detached from plates using Accutase (STEMCELL Technologies). Cells were seeded into 6-well plates (1.5×10^6 cells/well) in 3 mL of Stage 2 medium [Stage 1 medium supplemented with 0.1 μM All-trans RA (Sigma-Aldrich) and 1 μM SAG (Cayman Chemicals)]. […]
Meso Scale Discovery (MSD) Technology utilizes electrochemiluminescence to detect biomarkers, such as poly(GP), in protein samples. […] Protein samples were quantified using a Pierce™ Micro BCA Protein Assay Kit (Thermo Scientific).
Poly(GP) levels were measured by an electrochemical luminescent sandwich immunoassay. […]

C9ORF72 protein = assay: Western blot of total C9ORF72 protein in c9ALS/FTD iPSCs
Protocol: Protein samples were prepared as described for analysis by the electrochemical luminescent sandwich immunoassay. Approximately 20 μg total protein was loaded onto a 4-20% Mini-PROTEAN® TGX™ Precast Protein Gel (Bio-Rad) and run at 130 V for 1 hour in Tris-Glycine/SDS running buffer (25 mM Tris base, 190 mM glycine, 0.1% SDS, pH 8.3). Following electrophoresis, the protein was transferred to a PVDF membrane using Tris-Glycine transfer buffer (25 mM Tris base, 190 mM glycine, 20% methanol, pH 8.3). After transfer, the membrane was washed with 1×TBST and blocked in a solution of 5% (w/v) milk in 1×TBST for 30 minutes at room temperature with shaking. […] The membrane was then washed three times with 1×TBST and protein expression was quantified using SuperSignal West Pico Plus Chemiluminescent Substrate (Life Technologies), per the manufacturer's protocol, and film exposure. To quantify β-actin expression, the membrane was washed with 1×TBST and stripped using 1×Stripping Buffer (200 mM glycine, 1% (v/v) Tween-20, 0.1% (w/v) SDS, pH 2.2). […] The membrane was washed with 1×TBST and incubated with 1:5,000 anti-mouse IgG horseradish-peroxidase secondary antibody conjugate (Cell Signaling Technology) in 1×TBST at room temperature for 1 hour. β-actin protein expression was quantified as previously described.

**Q.** Which toxicity [1] does the source give for `CCOC(=O)C1=C(Nc2ccccc2)S/C(=C\c2ccc(OCCOCCOCCOCCNC(=O)CCCOc3ccc4c(c3)c3cc5c(C(=O)N[C@H](C)CN(C)C)nccc5c(C)c3n4C)c(O)c2)C1=O` [ALS Compound Formula I] here?
**A.** no significant toxicity

**Q.** And the “reduction of poly(GP) abundance” value [2]?
**A.** ~60%

**Q.** What about the “effect on healthy C9ORF72 protein levels” value (C9ORF72 protein) of the same compound?
**A.** no effect
